{
  "source": "patent US20240197687A1",
  "about": "“METHODS OF TREATING NEUROINFLAMMATION AND INHIBITING MONOAMINE OXIDASE-A AND RESTORING/UPREGULATING/INCREASING IL-13 AND AND PGC-1 BY ADMINISTERING ORAL DOSAGE FORM CONTAINING MICRONIZED AND NONMICRONIZED PARTICULATE METAXALONE, ALGINIC ACID AND PROPYLENE GLYCOL ALGINATE” (Primus Pharmaceuticals, Inc., priority 2022, published 2024)",
  "key": {"FM fibroblasts": {"test_system": "FM fibroblasts", "settings": "AMPK activation; cited from earlier work"}, "PINP rats": {"test_system": "PINP rats", "settings": "cited from earlier work"}, "[1]": {"test_system": "paclitaxel-induced neuropathic pain", "settings": "via induction of the NRF-2/HO-1 signaling pathway in the spinal cord; cited from earlier work"}, "[2]": {"test_system": "rat periodontal disease model", "settings": "MAO up-regulation triggered by LPS; cited from earlier work"}, "[3]": {"test_system": "rat model of ischemia-reperfusion injury", "settings": "cited from earlier work"}, "CCI mice": {"test_system": "CCI mice", "settings": "cited from earlier work"}, "HMC3 microglial cells": {"test_system": "HMC3 microglial cells", "experiment": "MTT cell viability assay", "settings": "24, 48 and 72 h, metaxalone 10, 20, 40 μg/mL, staurosporine 100 nM positive control"}, "RIM rats": {"test_system": "RIM rats", "settings": "melatonin supplementation, gastrocnemius muscle; cited from earlier work"}},
  "data": [
    {"smiles": "CN(C)C(=N)N=C(N)N", "note": "[metformin]", "values": [
      {"measurement": "response to moderate oxidative stress and mitochondrial metabolism", "setting": "FM fibroblasts", "value": "improved"}
    ]},
    {"smiles": "Cc1ccc(CN(CC(O)COc2cccc3[nH]ccc23)C(C)(C)C)cc1", "note": "(stereo not drawn) [SR-18292]", "values": [
      {"measurement": "analgesic effect of formoterol against PINP in presence of PGC-1α inhibitor", "setting": "PINP rats; PINP rats", "value": "partially abolished"}
    ]},
    {"smiles": "Cc1c(-c2cnccn2)ssc1=S", "note": "[oltipraz]", "values": [
      {"measurement": "paclitaxel-induced neuropathic pain", "setting": "[1]", "value": "significantly attenuate"}
    ]},
    {"smiles": "NNCCc1ccccc1", "note": "[phenelzine]", "values": [
      {"measurement": "oxidative stress", "setting": "[2]", "value": "significantly reduce"}
    ]},
    {"smiles": "O=C(NCCN1CCOCC1)c1ccc(Cl)cc1", "note": "[moclobemide]", "values": [
      {"measurement": "inflammatory process", "setting": "[3]", "value": "attenuate"}
    ]},
    {"smiles": "CC1(C)CC[C@]2(NC(=O)C(C)(F)F)CC[C@]3(C)[C@H](C(=O)C=C4[C@@]5(C)C=C(C#N)C(=O)C(C)(C)[C@@H]5CC[C@]43C)[C@@H]2C1", "note": "[RTA-408]", "values": [
      {"measurement": "mechanical allodynia (von Frey test)", "setting": "CCI mice; CCI mice, dose-dependent", "value": "significantly reversed"},
      {"measurement": "thermal hyperalgesia (Hargreaves plantar test)", "setting": "CCI mice; CCI mice, dose-dependent", "value": "significantly reversed"},
      {"measurement": "mitochondrial biogenesis (MB)", "setting": "CCI mice; L4-6 spinal cord of CCI mice, NRF-2-dependent", "value": "significantly restored"},
      {"measurement": "activity of NRF-2", "setting": "CCI mice; L4-6 spinal cord of CCI mice", "value": "increased"}
    ]},
    {"smiles": "COc1ccc(CC(C)NCC(O)c2ccc(O)c(NC=O)c2)cc1", "note": "(stereo not drawn) [formoterol]", "values": [
      {"measurement": "ADRB2 expression, mtDNA copy number and PGC-1α, NRF-1, TFAM protein expression", "setting": "PINP rats; spinal cord of PINP rats", "value": "restored"}
    ]},
    {"smiles": "CN[C@@H]1C[C@H]2O[C@@](C)([C@@H]1OC)n1c3ccccc3c3c4c(c5c6ccccc6n2c5c31)C(=O)NC4", "note": "[staurosporine]", "values": [
      {"measurement": "cell viability (MTT)", "setting": "HMC3 microglial cells", "value": "significant reduction in cell viability"}
    ]},
    {"smiles": "COc1ccc2[nH]cc(CCNC(C)=O)c2c1", "note": "[melatonin]", "values": [
      {"measurement": "studied parameters (PGC-1α, Mfn2, CoQ10), oxidative stress", "setting": "RIM rats", "value": "significantly preserved all the studied parameters"}
    ]}
  ]
}
